Measured values published in US20180133327A1, “Cell Penetrating Peptides and Complexes Comprising the Same” (Amal Therapeutics SA, priority 2015, published 2018).

Key:
[1] = tested on: OVA323-339-specific CD4+ T cells from OT-2 T cell TCR transgenic mice; assay: In vitro epitope presentation assay, MHC class II (BMDCs, proliferation of OT-2 T cells); type: cell-based, mouse; conditions: for in vitro proliferation of CD4 T cells (MHC class II presentation): BMDCs loaded 4 h with 300 nM ZxxOVACD8CD4, LPS o.n., 4 days
Experimental: BMDCs were loaded 4 h with 300nM of the different Zebra CPP truncation conjugated to both ovalbumin CD8 and CD4 epitopes (Z13OVACD8CD4, Z15OVACD8CD4 and Z18OVACD8CD4), then washed and incubated o.n. with 100 ng/ml of LPS. Efficient MHC class I or class II-restricted presentation was monitored after 4 days with CFSE-labeled naïve OVA257-264-specific CD8^+T cells from OT-1 T cell receptor (TCR) transgenic mice OT1 cells (A) or CFSE-labeled naïve OVA323-339-specific CD^+T cells from OT-2 T cell TCR transgenic mice respectively. As positive control, BMDCs were pulsed for 1 h with 5 uM peptide. Data from one experiment representative of three independent experiments.
In order to assess the capacity of the ZEBRA CPP truncations to stimulate an integrated immune response including CD4 T cells, antigenic cargoes were produced that included both CD8 and CD4 T cell epitopes from OVA, and conjugated to Z13, Z15 and Z18. Accordingly, the following constructs (Z13OVACD8CD4, Z15OVACD8CD4 and Z18OVACD8CD4) were synthesized:
Processing and presentation of the CD8 and CD4 T cell epitopes were monitored, as described in Example 2 for CD8 T cell epitopes, by measuring the in vitro proliferation of naïve OT-1 T cells (CD8 T cell epitopes; FIG. 4A) and OVA323-339-specific CD4^+ T cells from OT-2 T cell TCR transgenic mice, respectively (FIG. 4B). Briefly, OT-2 T cell TCR transgenic mice express TCR specific for MHC class II restricted OVA323-339.

EG7-OVA tumor cells = assay: Therapeutic effect of ZEBRA CPP truncation-based vaccines in the EG.7-OVA s.c. model; type: in vivo, C57BL/6 mice; conditions: 10 nmol ZxxOVACD8CD4 and 20 μg MPLA s.c. at d5, d13 and d21 after tumor implantation
Experimental: C57BL/6 mice were implanted s.c. with 3×10^5 EG7-OVA tumor cells in the left flank and vaccinated three times (d5, d13 and d21) by s.c. injection of 10nmoles of Z-truncOVACD8CD4 peptides and 20 μg of MPLA in the right flank. Tumor size was measured with a caliper. […] B, D and F: survival curve of 7 mice per group. Median survival is indicated on the graph (m.s.). *, p<0.05; **, p<0.01; ***, p<0.001; ****, p<0.0001 (Log-Rang test).
To investigate the effects of different ZEBRA CPP truncation-based vaccines on tumor growth and survival, the effects of the constructs Z13OVACD8CD4, Z14OVACD8CD4, Z15OVACD8CD4 and Z18OVACD8CD4 (as described in Examples 4 and 6) were investigated in the EG.7-OVA s.c. model. On d0, C57BL/6 mice were implanted s.c. with 3×10^5 EG7-OVA tumor cells in the left flank and assigned to five different groups (control, Z13OVACD8CD4, Z14OVACD8CD4, Z15OVACD8CD4 and Z18OVACD8CD4). Mice were vaccinated three times (namely, at d5, d13 and d21 after tumor implantation) by s.c. injection of either 10 nmol of Z13OVACD8CD4, Z14OVACD8CD4, Z15OVACD8CD4 or Z18OVACD8CD4 and 20μg of MPLA in the right flank. Tumor size was measured with a caliper.

[2] = tested on: OVA257-264-specific CD8+ T cells from OT-1 T cell receptor (TCR) transgenic mice; assay: Identification of the best ZEBRA CPP truncations in vitro (proliferation assay) and in vivo (CD8 T cell immune response after vaccination); type: cell-based, mouse (C57BL/6; conditions: each CPP truncation conjugated to OVACD8 epitope; in vitro BMDCs loaded with 0.3 μM, 4 days with OT-1 cells; in vivo 10 nmol s.c. wk0 and wk2 with anti-CD40 and Hiltonol
Source text: The functionality of the different ZEBRA CPP truncations was validated both in vitro and in vivo, based on the capacity to stimulate MHC class-I restricted CD8 T cells specific for a model antigen OVA (OVA257-264-specific CD8^+ T cells from OT-1 T cell receptor (TCR) transgenic mice). This capacity should reflect transport of the OVA antigen cargo into APCs. The functional read-out of these experiments was proliferation of OVA-specific CD8 T cells in vitro (FIG. 2A), and for the in vivo studies, the induction of OVA-specific CD8 T cells in the blood of mice vaccinated with the different CPP-OVA conjugates together with adjuvant (FIG. 2B).
To assess the proliferation of OVA-specific CD8 T cells in vitro, bone marrow derived dendritic cells (BMDCs) were prepared from C57BL/6 mice as previously described (Santiago-Raber (2003), J. Exp. Med. 197, 777-788), and used at day 9-10 of culture.
BMDCs were loaded with 0.3 μM of each Zebra CPP truncation (Z13 to Z20) conjugated to OVACD8 epitope as described above for 4 hours at 37° C., washed 3 times, then matured overnight at 37° C. with 100 ng/ml LPS (from Salmonella abortus, equi S-form, Enzo Life Sciences). Antigen-loaded mature BMDC were then mixed at a ratio of 1:10 with OT-1 T cell receptor (TCR) transgenic mice splenocytes that had been stained with 10 μM 5-(and 6) Carboxyfluorescein diacetate succinimidyl ester (CFSE) (Life Technologies). After 4 days co-incubation of spleen cells and BMDCs, antigen-specific proliferation was assessed by flow cytometry, measuring CFSE dilution on CD8 T cells and live-gated cells. OT-1 mice express TCR specific for MHC class I restricted OVA257-264.
To assess the induction of OVA-specific CD8 T cells in vivo, C57/BL6 mice were assigned to nine different groups (Z12 to Z20, respectively). Each group of mice was vaccinated by subcutaneous injection of 10 nmol of one selected Zebra CPP truncation (one selected from Z12 to Z20) conjugated to OVACD8 epitope as described above with 100 μg of anti-CD40 at week0 and week2. Mice were also injected with 50 μg of Hiltonol i.m. (right hind leg). Mice were bled 1 wk after the 2nd vaccination in order to assess OVA257-264-specific CD8 T cells.

Sequence: KRYKNRVASRKSRAKFKQLLQHYREVAAAKSSENDRLRLLLK [Z13]
- in vitro proliferation of CD4 T cells (MHC class II presentation) [1]: proliferation of both CD8 and CD4 T cells occurred
- survival time (EG7-OVA tumor cells): much more pronounced and highly significant
- tumor volume (EG7-OVA tumor cells): much more pronounced and highly significant
- promoting cross-presentation (stimulation of OVA-specific CD8 T cells) [2]: best truncations for promoting cross-presentation

Sequence: KRYKNRVASRKSRAKFKQLLQHYREVAAAK [Z14]
- survival time (EG7-OVA tumor cells): much more pronounced and highly significant
- tumor volume (EG7-OVA tumor cells): much more pronounced and highly significant
- promoting cross-presentation (stimulation of OVA-specific CD8 T cells) [2]: best truncations for promoting cross-presentation

Sequence: KRYKNRVASRKSRAKFK (CPP Z15) [ZEBRA CPP truncation]
- in vitro proliferation of CD4 T cells (MHC class II presentation) [1]: proliferation of both CD8 and CD4 T cells occurred
- survival time (EG7-OVA tumor cells): only slight
- tumor volume (EG7-OVA tumor cells): only slight
- promoting cross-presentation (stimulation of OVA-specific CD8 T cells) [2]: best truncations for promoting cross-presentation

Sequence: REVAAAKSSENDRLRLLLK [Z18]
- in vitro proliferation of CD4 T cells (MHC class II presentation) [1]: proliferation of both CD8 and CD4 T cells occurred
- efficiency of DC transduction and cargo delivery into the MHC class II antigen processing pathway ([1]; ZxxOVACD8CD4, 300 nM, compared with Z13 or Z15): less efficient
- survival time (EG7-OVA tumor cells): only slight
- tumor volume (EG7-OVA tumor cells): only slight
- promoting cross-presentation (stimulation of OVA-specific CD8 T cells) [2]: best truncations for promoting cross-presentation
